Laboratory results published in patent US11859205B2, “Medium for culturing stem cells” (AJINOMOTO CO., INC., priority 2013, dated 2024).

Assays:
iPS cells = assay: Viable iPS cell number with purified albumin re-carrying fatty acid (Example 4, FIG. 4); type: cell-based, human; details: fatty acid re-adsorbed to albumin, 1 week
Description: Proliferative effect of various test compounds on induced pluripotent stem cell (iPS cell) was evaluated. As the iPS cell, 201B7 strain purchased from iPS Academia Japan, Inc. was used. Cell culture was performed under conditions of 5% CO2/37° C. and using a culture vessel (Nippon Becton Dickinson Company, Ltd., Falconculture petri dish or Falconculture plate) coated with a basal membrane matrix.
Various test compounds were added at given concentrations to a medium of “E8” composition (disclosed in Nature Methods, 2011, 8, 424-429, which is incorporated herein by reference in its entirety) currently considered to be the minimum composition for cultivating human pluripotent stem cells, and used for culture, from which the effect was studied.
The solution was shaken at 37° C. for 7 hours, left standing at 4° C. overnight, and filtered with a 0.22 μm syringe filter. […] The mixture was added to a medium such that the final concentration of albumin was 2.6 g/L.
The final concentration in and the amount of addition to the medium are also the same.
Using the medium produced as mentioned above, the influence of each fatty acid on the proliferation of iPS cells was studied. A 6-well plate coated with a fragment containing an active domain of laminin 511 at 5 μg/well (iMatrix-511 (Nippi, Incorporated)) as a basal membrane matrix was used. iPS cells were single-cell seeded at 13,000 cells/well and cultured for 1 week. Y-27632 (NACALAI TESQUE, INC.: 08945-84) was added at a final concentration of 10 μM only to a medium to be used for seeding. As a positive control, iPS cells were cultured using an albumin free of re-adsorption of fatty acid, i.e., albumin after a fatty acid removal treatment.
The cells were detached from each well by TrypLE Select (Life Technologies: 12563-011), and the number of the viable cells was measured.

stem cells = details: WO 2013/006675; cited from earlier work
[1] = final concentration in medium 28 μM
[2] = final concentration in medium 57 μM

SMILES | effect on proliferation of iPS cells (number of viable cells) (iPS cells; [1]) | effect on proliferation of iPS cells (number of viable cells) (iPS cells; [2]) | effect on culture of stem cells (stem cells)
CCCCC/C=C\C/C=C\CCCCCCCC(=O)O [linoleic acid] | markedly suppressed | the cells died | 
CCCCC/C=C\C/C=C\C/C=C\C/C=C\CCCC(=O)O [arachidonic acid] | the cells died | the cells died | 
CCCCCCCCCCCCCCCC(=O)O [palmitic acid] | the cells died | the cells died | 
CCCCCCCCCCCCCCCCCC(=O)O [stearic acid] | the cells died | the cells died | 
CCCCCCCC/C=C\CCCCCCCC(=O)O [oleic acid] | smaller than that of the positive control | smaller than that of the positive control | 
CCCCCCCC(=O)O [octanoic acid] |  |  | harmful
